# Results as given in ChEMBL document CHEMBL1909046, “DrugMatrix in vitro pharmacology data”.
# How the values were obtained:
# Melanocortin receptor 4 = Melanocortin receptor 4 (Homo sapiens, UniProt P32245); assay type: cell membranes, HEK293, Membrane; details: hek293; note: in other assays of this panel Not Active means under 50% inhibition at 10 µM
# [1] = molecular target: T1, Muscarinic acetylcholine receptor M4 (Homo sapiens, UniProt P08173); assay type: cell membranes, CHO-K1, Membrane; details: cho-k1; note: in other assays of this panel Not Active means under 50% inhibition at 10 µM
# T1 sequence (P08173 whole entry): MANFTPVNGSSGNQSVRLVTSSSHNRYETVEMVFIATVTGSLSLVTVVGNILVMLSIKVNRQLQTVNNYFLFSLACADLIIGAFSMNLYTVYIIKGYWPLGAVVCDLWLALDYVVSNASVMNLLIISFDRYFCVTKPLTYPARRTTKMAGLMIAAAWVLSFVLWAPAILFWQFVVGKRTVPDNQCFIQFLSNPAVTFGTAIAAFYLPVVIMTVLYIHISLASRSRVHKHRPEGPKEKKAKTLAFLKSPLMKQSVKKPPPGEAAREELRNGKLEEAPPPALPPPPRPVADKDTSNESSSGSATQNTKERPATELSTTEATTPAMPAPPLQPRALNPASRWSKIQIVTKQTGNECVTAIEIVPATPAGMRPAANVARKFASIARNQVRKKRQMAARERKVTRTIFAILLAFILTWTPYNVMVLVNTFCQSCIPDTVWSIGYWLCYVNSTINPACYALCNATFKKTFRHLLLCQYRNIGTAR
# [2] = molecular target: T2, Muscarinic acetylcholine receptor M5 (Homo sapiens, UniProt P08912); assay type: cell membranes, CHO-K1, Membrane; details: cho-k1; note: in other assays of this panel Not Active means under 50% inhibition at 10 µM
# T2 sequence (P08912 whole entry): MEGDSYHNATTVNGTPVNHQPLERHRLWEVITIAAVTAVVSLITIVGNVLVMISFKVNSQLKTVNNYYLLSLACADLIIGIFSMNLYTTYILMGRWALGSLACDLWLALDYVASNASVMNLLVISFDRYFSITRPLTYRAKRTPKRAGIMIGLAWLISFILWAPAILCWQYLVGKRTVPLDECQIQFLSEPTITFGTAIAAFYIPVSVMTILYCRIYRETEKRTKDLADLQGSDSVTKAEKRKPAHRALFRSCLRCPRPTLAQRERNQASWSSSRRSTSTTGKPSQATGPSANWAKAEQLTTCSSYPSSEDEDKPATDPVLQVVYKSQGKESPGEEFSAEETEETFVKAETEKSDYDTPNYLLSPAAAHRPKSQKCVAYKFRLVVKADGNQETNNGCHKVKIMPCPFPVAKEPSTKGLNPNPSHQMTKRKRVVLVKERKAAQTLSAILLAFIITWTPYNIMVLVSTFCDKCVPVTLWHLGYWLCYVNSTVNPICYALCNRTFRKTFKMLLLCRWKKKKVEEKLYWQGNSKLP
# [3] = molecular target: Protein kinase C alpha type (Homo sapiens, UniProt P17252); assay type: cell-based; details: sf9;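 note: inhibition of PKCalpha kinase activity measured in an enzyme assay with histone as the phosphorylation substrate; in other assays of this panel Not Active means under 50% inhibition at 10 µM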
# [4] = molecular target: Tyrosine-protein kinase Lck (Homo sapiens, UniProt P06239); assay: DRUGMATRIX: Protein Tyrosine Kinase, LCK enzyme inhibition (substrate: Poly(Glu:Tyr)); assay type: cell-based, Insect cells; details: insect cells, Not Active = under 50% inhibition at 10 µM
# Chain of Tyrosine-protein kinase Lck (P06239 whole entry): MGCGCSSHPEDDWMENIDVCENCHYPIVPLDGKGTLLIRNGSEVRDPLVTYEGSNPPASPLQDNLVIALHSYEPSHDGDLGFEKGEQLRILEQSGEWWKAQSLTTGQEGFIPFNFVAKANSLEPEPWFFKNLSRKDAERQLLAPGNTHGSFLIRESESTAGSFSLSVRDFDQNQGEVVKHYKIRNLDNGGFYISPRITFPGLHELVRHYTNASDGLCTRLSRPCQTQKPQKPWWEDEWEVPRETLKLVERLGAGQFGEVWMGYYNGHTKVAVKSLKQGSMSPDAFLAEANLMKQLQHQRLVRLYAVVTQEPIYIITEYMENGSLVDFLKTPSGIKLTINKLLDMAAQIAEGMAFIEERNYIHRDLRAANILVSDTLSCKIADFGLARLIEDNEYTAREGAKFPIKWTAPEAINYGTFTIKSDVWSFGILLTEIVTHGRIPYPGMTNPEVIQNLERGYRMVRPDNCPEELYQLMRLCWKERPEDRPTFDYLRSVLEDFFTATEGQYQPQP
# Chain of Melanocortin receptor 4 (P32245 whole entry): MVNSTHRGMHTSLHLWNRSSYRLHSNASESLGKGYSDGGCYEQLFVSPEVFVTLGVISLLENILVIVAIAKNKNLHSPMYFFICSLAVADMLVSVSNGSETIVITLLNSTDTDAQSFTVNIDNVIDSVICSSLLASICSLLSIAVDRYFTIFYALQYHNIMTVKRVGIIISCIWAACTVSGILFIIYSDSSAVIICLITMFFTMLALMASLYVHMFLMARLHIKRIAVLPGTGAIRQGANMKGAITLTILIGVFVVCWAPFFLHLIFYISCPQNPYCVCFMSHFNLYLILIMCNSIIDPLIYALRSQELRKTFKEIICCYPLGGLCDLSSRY
Compound,IC50 (Melanocortin receptor 4),IC50 [1],IC50 [2],IC50 [3],IC50 [4],Ki (Melanocortin receptor 4),Ki [1],Ki [2],Ki [3],Ki [4],IC50 (Melanocortin receptor 4; read-out: IC50),Ki (Melanocortin receptor 4; read-out: Ki),IC50 ([4]; read-out: IC50)
C[n+]1ccccc1/C=N/O.[Cl-] [PRALIDOXIME CHLORIDE],Not Active,Not Active,Not Active,Not Active,Not Active,–,–,–,–,–,–,–,–
COc1cc2nc(N3CCN(C(=O)c4ccco4)CC3)nc(N)c2cc1OC [PRAZOSIN],Not Active,Not Active,Not Active,Not Active,Not Active,–,–,–,–,–,–,–,–
C[C@]12C=CC(=O)C=C1CC[C@@H]1[C@@H]2[C@@H](O)C[C@@]2(C)[C@H]1CC[C@]2(O)C(=O)CO [PREDNISOLONE],Not Active,Not Active,Not Active,Not Active,Not Active,–,–,–,–,–,–,–,–
CC(=O)[C@H]1[C@H](C#N)C[C@H]2[C@@H]3CC=C4C[C@@H](O)CC[C@]4(C)[C@H]3CC[C@@]21C [PREGNENOLONE CARBONITRILE],Not Active,Not Active,Not Active,Not Active,Not Active,–,–,–,–,–,–,–,–
CCCN(CCC)S(=O)(=O)c1ccc(C(=O)O)cc1 [PROBENECID],Not Active,Not Active,Not Active,Not Active,Not Active,–,–,–,–,–,–,–,–
CCCNCC(O)COc1ccccc1C(=O)CCc1ccccc1 (centres undefined) [PROPAFENONE],Not Active,Not Active,Not Active,Not Active,Not Active,–,–,–,–,–,–,–,–
CCCOc1ccc(C(=O)OCCN(CC)CC)cc1N [PROPARACAINE],Not Active,Not Active,Not Active,Not Active,Not Active,–,–,–,–,–,–,–,–
CC(C)c1cccc(C(C)C)c1O [PROPOFOL],Not Active,Not Active,Not Active,Not Active,Not Active,–,–,–,–,–,–,–,–
C[C@@H]1O[C@@H](O[C@@H]2C=C3CC[C@@H]4[C@H](CC[C@]5(C)[C@@H](c6ccc(=O)oc6)CC[C@]45O)[C@@]3(C)CC2)[C@H](O)[C@H](O)[C@H]1O [PROSCILLARIDIN],Not Active,Not Active,Not Active,Not Active,Not Active,–,–,–,–,–,–,–,–
Oc1cccc(O)c1O [PYROGALLOL],Not Active,Not Active,Not Active,Not Active,Not Active,–,–,–,–,–,–,–,–
AURANOFIN,Not Active,Not Active,Not Active,Not Active,Not Active,Not Active,Not Active,Not Active,Not Active,Not Active,–,–,–
GADOPENTETATE DIMEGLUMINE,Not Active,Not Active,Not Active,Not Active,Not Active,Not Active,Not Active,Not Active,Not Active,Not Active,–,–,–
GENTAMICIN,Not Active,Not Active,Not Active,Not Active,Not Active,Not Active,Not Active,Not Active,Not Active,Not Active,–,–,–
GRAMICIDIN,–,Not Active,Not Active,Not Active,–,–,Not Active,Not Active,Not Active,–,3.31 µM,3.19 µM,1.09 µM
NYSTATIN,Not Active,Not Active,Not Active,Not Active,Not Active,Not Active,Not Active,Not Active,Not Active,Not Active,–,–,–
